Activity calls are given as the source filed them. The calls are words filed in the database; no cut-off is given here.
Tests used:
Vero = test: (§1) Cytotoxicity against green monkey Vero cells assessed as reduction in cell viability at 24 to 48 hrs by MTT assay; type: toxicity, cell-based; set-up: Activity: concentration or dose not given beside the values; conditions: chlorocebus sabaeus, vero; time 24-48 hrs
Chikungunya virus [1] = test: Antiviral activity against CHIKV infected in green monkey Vero cells assessed as reduction in viral titer at 25 uM pretreated the cells with viral infection for 1 hr followed by compound addition and measured after 24 hrs by Foci forming unit assay (reference value: 8.55 log10FFU/ml); type: functional
[2] = as §1; type: toxicity, cell-based; set-up: Activity: concentration or dose not given beside the values; conditions: chlorocebus sabaeus, Vero cells; time 24-48 hrs
[3] = Selectivity ratio of IC50 for antiviral activity against CHIKV infected in green monkey Vero cells assessed as reduction in viral titer pretreated the cells with viral infection for 1 hr followed by compound addition and measured after 24 hrs by Foci forming unit assay to CC50 for cytotoxicity against green monkey Vero cells; type: toxicity, cell-based
Chikungunya virus [4] = test: Antiviral activity against CHIKV infected in green monkey Vero cells assessed as reduction in viral titer pretreated the cells with viral infection for 1 hr followed by compound addition and measured after 24 hrs by Foci forming unit assay; type: functional, organism-based
Chikungunya virus [5] = test: Antiviral activity against CHIKV infected in green monkey Vero cells assessed as reduction in viral titer at 6.25 uM pretreated with compound for 24 hrs followed by viral infection by Foci forming unit assay (reference value: 8.81 log10FFU/ml); type: functional, organism-based
Chikungunya virus [6] = test: Antiviral activity against CHIKV infected in green monkey Vero cells assessed as reduction in viral titer at 12.5 to 50 uM pretreated the cells with viral infection for 1 hr followed by compound addition and measured after 24 hrs by Foci forming unit assay (reference value: 8.55 log10FFU/ml); type: functional; conditions: dose 12.5-50 µM
Chikungunya virus [7] = test: Antiviral activity against CHIKV infected in green monkey Vero cells assessed as reduction in viral titer at 50 uM pretreated with compound for 24 hrs followed by viral infection by Foci forming unit assay (reference value: 8.81 log10FFU/ml); type: functional
Chikungunya virus [8] = test: Antiviral activity against CHIKV infected in green monkey Vero cells assessed as reduction in viral titer at 3.125 uM pretreated the cells with viral infection for 1 hr followed by compound addition and measured after 24 hrs by Foci forming unit assay (reference value: 8.55 log10FFU/ml); type: functional
Chikungunya virus [9] = test: Antiviral activity against CHIKV infected in green monkey Vero cells assessed as inhibition of viral post entry by entry bypass assay; type: functional, organism-based
Chikungunya virus [10] = test: Antiviral activity against CHIKV infected in green monkey Vero cells assessed as reduction in viral titer at 6.25 uM pretreated with compound for 24 hrs followed by viral infection by Foci forming unit assay (reference value: 8.55 log10FFU/ml); type: functional
Chikungunya virus [11] = test: Antiviral activity against CHIKV infected in green monkey Vero cells assessed as reduction in viral titer at 25 uM pretreated with compound for 24 hrs followed by viral infection by foci forming unit assay (reference value: 8.48 log10FFU/ml); type: functional
Chikungunya virus [12] = test: Antiviral activity against CHIKV infected in green monkey Vero cells assessed as reduction in viral titer at 50 uM pretreated with compound for 24 hrs followed by viral infection by foci forming unit assay (reference value: 8.48 log10FFU/ml); type: functional
Chikungunya virus [13] = test: Antiviral activity against CHIKV infected in green monkey Vero cells assessed as reduction in viral titer pretreated with compound for 24 hrs followed by viral infection by Foci forming unit assay; type: functional, organism-based
Chikungunya virus [14] = test: Antiviral activity against CHIKV infected in green monkey Vero cells assessed as reduction in viral titer at 12.5 to 25 uM pretreated the cells with viral infection for 1 hr followed by compound addition and measured after 24 hrs by Foci forming unit assay (reference value: 8.55 log10FFU/ml); type: functional; conditions: dose 12.5-25 µM
Chikungunya virus [15] = test: Antiviral activity against CHIKV infected in green monkey Vero cells assessed as inhibition of viral entry by entry assay; type: functional, organism-based
Chikungunya virus [16] = test: Antiviral activity against CHIKV infected in green monkey Vero cells assessed as inhibition of infectious virus preincubated the cells for 45 mins followed by compound addition and measured after 1 to 6 hrs post infection by time of addition assay; type: functional, organism-based; conditions: time 1-6 hrs
Chikungunya virus [17] = test: Antiviral activity against CHIKV infected in green monkey Vero cells assessed as inhibition of infectious virus preincubated the cells for 45 mins followed by compound addition and measured after 5 to 6 hrs post infection by time of addition assay; type: functional; set-up: scale not given: the % may be the effect or the level left; conditions: time 5-6 hrs

| Structure (SMILES) | Activity (Vero) [%] | CC50 [2] [µM] | selectivity ratio at 24 h [3] | IC50 (Chikungunya virus [4]) [µM] | other results |
| --- | --- | --- | --- | --- | --- |
| COc1c(OCc2cn(-c3ccc(F)c(Cl)c3)nn2)cc2oc3cc4c(c(O)c3c(=O)c2c1CC=C(C)C)C=CC(C)(C)O4 | > 90 |  |  |  |  |
| COc1c(OCC(=O)N2CCN(S(=O)(=O)c3ccc(Cl)cc3)CC2)cc2oc3cc4c(c(O)c3c(=O)c2c1CC=C(C)C)C=CC(C)(C)O4 | > 90 | 160 | 14.3 | 11.2 | Activity (Chikungunya virus [1]): 7.39 log10FFU/ml |
| Oc1cc(O)c2c(c1)O[C@@H](c1ccc(O)c(O)c1)[C@@H](O)C2 [(+)-EPICATECHIN] | > 90 | 206 | 23.8 | 8.65 | Activity (Chikungunya virus [5]): Active; Activity (Chikungunya virus [6]): ~7.4 log10FFU/ml; Activity (Chikungunya virus [7]): 7.45 log10FFU/ml |
| O=c1c2cc(O)c(O)cc2oc2cc(O)cc(O)c12 | > 90 |  |  |  |  |
| COc1c(O)cc2oc3cc(O)c4c(c3c(=O)c2c1CC=C(C)C)OC(C)(C)CC4 | > 90 | 119 | 4.01 | 29.7 | Activity (Chikungunya virus [5]): Active; Activity (Chikungunya virus [7]): 7.62 log10FFU/ml; Activity (Chikungunya virus [8]): 7.39 log10FFU/ml |
| COc1c(OCc2cn(-c3c(C)cccc3C)nn2)cc2oc3cc4c(c(O)c3c(=O)c2c1CC=C(C)C)C=CC(C)(C)O4 | > 90 |  |  |  | Activity (Chikungunya virus [9]): Active |
| CC(C)=CCc1c(O)cc2oc3cc(O)c4c(c3c(=O)c2c1O)CCC(C)(C)O4 | > 90 | 11.4 | 2.79 | 4.1 | Activity (Chikungunya virus [10]): 7.43 log10FFU/ml |
| COc1c(OCc2cn(-c3cccc(F)c3F)nn2)cc2oc3cc4c(c(O)c3c(=O)c2c1CC=C(C)C)C=CC(C)(C)O4 | > 90 |  |  |  |  |
| COc1c(OCC(=O)N2CCN(S(=O)(=O)c3ccc(C(F)(F)F)cc3)CC2)cc2oc3cc4c(c(O)c3c(=O)c2c1CC=C(C)C)C=CC(C)(C)O4 | > 90 | 160 | 25 | 6.41 | Activity (Chikungunya virus [11]): ~7.29 log10FFU/ml; Activity (Chikungunya virus [12]): ~7.29 log10FFU/ml; IC50 (Chikungunya virus [13]): 6.96 µM; Activity (Chikungunya virus [14]): 7.4 log10FFU/ml |
| O=c1cc(-c2ccc(O)c(O)c2)oc2c(O)c(O)cc(O)c12 [HYPOLAETIN] | > 90 |  |  |  |  |
| COc1c(OCc2cn(-c3ccc(Cl)cc3)nn2)cc2oc3cc4c(c(O)c3c(=O)c2c1CC=C(C)C)C=CC(C)(C)O4 | > 90 | 59.7 | 63.1 | 0.947 | Activity (Chikungunya virus [15]): Active; Activity (Chikungunya virus [16]): Active; Activity (Chikungunya virus [9]): Active; Activity (Chikungunya virus [17]): >90% |
| COc1c(OCC(=O)N2CCN(S(=O)(=O)c3ccc(C#N)cc3)CC2)cc2oc3cc4c(c(O)c3c(=O)c2c1CC=C(C)C)C=CC(C)(C)O4 | > 90 | 223 | 119 | 1.88 | Activity (Chikungunya virus [8]): 7.44 log10FFU/ml |
| COc1c(OCc2cn(-c3cccc(C(F)(F)F)c3)nn2)cc2oc3cc4c(c(O)c3c(=O)c2c1CC=C(C)C)C=CC(C)(C)O4 | > 90 |  |  |  |  |
| COc1c(O)cc2oc3cc(O)c(CC=C(C)C)c(O)c3c(=O)c2c1CC=C(C)C [MANGOSTIN] | > 90 | 15.4 |  | 2.2 | Activity (Chikungunya virus [8]): 7.37 log10FFU/ml; Activity (Chikungunya virus [10]): 7.28 log10FFU/ml |
| COc1c(OCc2cn(-c3c(C)cc(C)cc3C)nn2)cc2oc3cc4c(c(O)c3c(=O)c2c1CC=C(C)C)C=CC(C)(C)O4 | < 90 |  |  |  |  |
| CC(C)=CCc1c(O)c(CC=C(C)C)c2oc3c(O)ccc(O)c3c(=O)c2c1O [GARTANIN] | > 90 | 7.71 | 2.07 | 3.73 | Activity (Chikungunya virus [10]): 7.42 log10FFU/ml |
| COc1c(OCC#Cc2ccccc2Br)cc2oc3cc4c(c(O)c3c(=O)c2c1CC=C(C)C)C=CC(C)(C)O4 | > 90 |  |  |  |  |
| COc1c(OCc2cn(-c3cccc(C)c3)nn2)cc2oc3cc4c(c(O)c3c(=O)c2c1CC=C(C)C)C=CC(C)(C)O4 | > 90 |  |  |  |  |
| COc1c(OCc2cn(-c3ccc(C)c(C)c3)nn2)cc2oc3cc4c(c(O)c3c(=O)c2c1CC=C(C)C)C=CC(C)(C)O4 | > 90 |  |  |  |  |

From ChEMBL document CHEMBL6121014, “Novel α-mangostin derivatives as promising antiviral agents: Isolation, synthesis, and evaluation against chikungunya virus” (Eur J Med Chem, 2025)
